Broadly, the GI50 is the concentration at which growth is held to half of that of the control.

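These data come from cells grown in 96-well plates and exposed to compound for 48 hours at five concentrations. Abbreviation: GI50, concentration required for 50% inhibition of growth.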 Activity calls are given as the source filed them. No stated cut-off is given here; in the data, active = GI50 up to about 1.1 µM and inactive = higher. Non-standard residues stand in square brackets, D forms with d. Residues, ends and D or L forms follow the SMILES beside them. Some results are limits rather than exact numbers.

Among the test systems are SK-MEL-5; SNB-75; MDA-MB-435; OVCAR-8; HOP-92; SNB-19; HL-60; NCI-H522; RPMI-8226; MCF7; HOP-62; HCT-116; 786-0; HCT-15; NCI-H460; COLO 205; CAKI-1; UACC-62; SK-MEL-2; RXF 393.
Assay in all cases: DTP human tumour cell line panel, 48 h

With `CC(C)OCC(O)COc1ccc2ccc(=O)oc2c1` (stereo not given), the GI50 with SK-MEL-5, in the assay on SNB-75, in the assay on MDA-MB-435, in the assay on OVCAR-8, in the assay on HOP-92 and with SNB-19 was > 100 µM (inactive) in each case. The GI50 with HL-60, in the assay with NCI-H522, in the assay with RPMI-8226, in the assay on MCF7, with HOP-62 and with HCT-116 was > 100 µM (inactive) each time. The GI50 in the assay with 786-0 was > 100 µM (inactive); with HCT-15, > 100 µM; in the assay with NCI-H460 it was > 100 µM (inactive); in the assay on COLO 205, > 100 µM (inactive); with CAKI-1, > 100 µM (inactive); in the assay on UACC-62 it was > 100 µM (inactive).

With `COC(=O)[C@@]1(C)CCC[C@]2(C(=O)O)C3Cc4occc4[C@H](C)[C@@H]3CCC21` (stereo not given in full), the GI50 in the assay on SK-MEL-5 was 89.1 µM (inactive); with SK-MEL-2, 51.2 µM (inactive); in the assay with MDA-MB-435, 80.5 µM (inactive); in the assay with OVCAR-8, 68.1 µM (inactive); in the assay with HOP-92, 29.4 µM (inactive); in the assay with SNB-19, 71.1 µM (inactive). The GI50 in the assay with HL-60 is 41.1 µM (inactive); in the assay on MCF7, > 10 µM (inactive); in the assay on HOP-62, 34 µM (inactive); with HCT-116 it was 35.2 µM (inactive); in the assay on 786-0, 73.1 µM (inactive); in the assay on HCT-15, > 10 µM. Further, the GI50 in the assay on RXF 393 was 51.1 µM (inactive); in the assay with NCI-H460, 33.8 µM (inactive); with UACC-62, 62.5 µM (inactive).

`COC(=O)c1cc2/c(=N/O)c3ccccc3sc2o1`: the GI50 in the assay on SK-MEL-5, with SK-MEL-2, in the assay on SNB-75, with MDA-MB-435, with OVCAR-8 and in the assay on HOP-92 was > 100 µM (inactive) each time. The GI50 in the assay on SNB-19, with HL-60, in the assay on NCI-H522, in the assay with RPMI-8226, in the assay with MCF7 and with HOP-62 was > 100 µM (inactive) throughout. The GI50 was > 100 µM (inactive) with HCT-116; > 100 µM (inactive) in the assay with 786-0; > 100 µM in the assay on HCT-15; 61 µM (inactive) with NCI-H460; > 100 µM (inactive) in the assay with COLO 205; > 100 µM (inactive) in the assay on CAKI-1. The GI50 in the assay on UACC-62 was > 100 µM (inactive).

On to `C/C1=C\CC[C@@]2(C)O[C@@H]2C[C@@H](C2(C)CO2)CC/C(C)=C/CC1` (stereo not given in full), for which the GI50 with SK-MEL-5 was 21.7 µM (inactive); with SK-MEL-2, 27.9 µM (inactive); in the assay with SNB-75, 26.2 µM (inactive); in the assay on MDA-MB-435, 20.6 µM (inactive); in the assay with OVCAR-8 it was 19.1 µM (inactive); in the assay on HOP-92, 33.7 µM (inactive). For the same compound, the GI50 in the assay on SNB-19 is 19.4 µM (inactive); with HL-60, 27.1 µM (inactive); in the assay with NCI-H522 it was 23.7 µM (inactive); in the assay with RPMI-8226, 31 µM (inactive); with MCF7, 21.7 µM (inactive); in the assay on HOP-62 it was 30.3 µM (inactive). In addition, the GI50 in the assay with HCT-116 is 20.4 µM (inactive); in the assay on 786-0, 16.8 µM (inactive); in the assay on HCT-15 it was 10.3 µM; in the assay on NCI-H460 it was 19.1 µM (inactive); in the assay with COLO 205 it was 15.6 µM (inactive); in the assay with CAKI-1, 19.6 µM (inactive). Moreover, the GI50 with UACC-62 was 16 µM (inactive).

Regarding `COc1ccccc1NC(=O)C(C#N)=C(SC)SC`, the GI50 in the assay with SK-MEL-5 was > 100 µM (inactive); with SK-MEL-2, > 100 µM (inactive); with MDA-MB-435, > 100 µM (inactive); in the assay with HOP-92 it was 32.3 µM (inactive); in the assay on SNB-19 it was > 100 µM (inactive); in the assay with HL-60, > 100 µM (inactive). The GI50 in the assay with NCI-H522, with RPMI-8226, in the assay with MCF7, in the assay on HOP-62, in the assay with HCT-116 and with 786-0 was > 100 µM (inactive) in each case. In addition, the GI50 in the assay on HCT-15 is > 100 µM; with RXF 393, > 100 µM (inactive); in the assay with NCI-H460, 94.2 µM (inactive); in the assay with COLO 205, > 100 µM (inactive); in the assay on CAKI-1 it was 61 µM (inactive); with UACC-62, > 100 µM (inactive).

With `CSCC[C@H](NC(=O)[C@@H](N)CC(N)=O)C(=O)N[C@@H](Cc1c[nH]c2ccccc12)C(=O)N[C@@H](CCC(N)=O)C(=O)N[C@@H](CCC(=O)O)C(=O)N[C@H](C(=O)NCC(=O)N[C@@H](CCCCN)C(=O)N[C@H](C)C(=O)O)C(C)C` (H-NMWQEVGK[dA]-OH), the GI50 in the assay on SK-MEL-5, with SNB-75, in the assay on MDA-MB-435, in the assay on OVCAR-8, with HOP-92 and in the assay on SNB-19 was > 100 µM (inactive) in each case. The GI50 with HL-60, in the assay on RPMI-8226, in the assay with MCF7, with HOP-62, in the assay with HCT-116 and with 786-0 was > 100 µM (inactive) in each case. The GI50 with HCT-15 was > 100 µM; in the assay on RXF 393 it was > 100 µM (inactive); with NCI-H460, > 100 µM (inactive); in the assay on COLO 205, > 100 µM (inactive); in the assay on CAKI-1, > 100 µM (inactive); in the assay with UACC-62, > 100 µM (inactive).

`CC(C)COP(C)(=O)C(N)(C(F)(F)F)C(F)(F)F` (stereo not given): the GI50 in the assay on SK-MEL-5 was > 100 µM (inactive); with SK-MEL-2, > 100 µM (inactive); with SNB-75, 7.78 µM (inactive); in the assay with MDA-MB-435, > 100 µM (inactive); with OVCAR-8, > 100 µM (inactive); with HOP-92 it was > 100 µM (inactive). In addition, the GI50 with HL-60, in the assay on RPMI-8226, in the assay on MCF7, in the assay on HOP-62, in the assay with HCT-116 and in the assay on 786-0 was > 100 µM (inactive) in each case. The GI50 was > 100 µM in the assay on HCT-15, > 100 µM (inactive) in the assay on COLO 205, > 100 µM (inactive) with CAKI-1 and > 100 µM (inactive) with UACC-62.

Regarding `O=C(CCc1cccc(O)c1)NCCc1cccc(OCc2ccccc2)c1`, the GI50 was 16 µM (inactive) in the assay on SK-MEL-5; 15.6 µM (inactive) in the assay on SK-MEL-2; 14.9 µM (inactive) with MDA-MB-435; 26.7 µM (inactive) in the assay on OVCAR-8; 14.9 µM (inactive) with HOP-92; 22.8 µM (inactive) in the assay with SNB-19. Also, the GI50 is 28.4 µM (inactive) with HL-60; 17.1 µM (inactive) in the assay on NCI-H522; 16.2 µM (inactive) in the assay on RPMI-8226; 18.8 µM (inactive) with MCF7; 15.3 µM (inactive) with HOP-62; 16.7 µM (inactive) with HCT-116. Also, the GI50 with 786-0 was 25.4 µM (inactive); with HCT-15, 19.9 µM; with RXF 393 it was 19.7 µM (inactive); in the assay with NCI-H460, 15.6 µM (inactive); in the assay with COLO 205, 19.7 µM (inactive); in the assay with CAKI-1, 26.9 µM (inactive). Moreover, the GI50 with UACC-62 is 14.3 µM (inactive).

In the case of `CCN(CC)CCOCCn1c2c(c3ccccc31)CCCC2`, the GI50 with SK-MEL-5 is 13.5 µM (inactive); in the assay with SK-MEL-2, 15.7 µM (inactive); with SNB-75 it was 34.8 µM (inactive); with MDA-MB-435, 17.8 µM (inactive); with OVCAR-8, 33.7 µM (inactive); with HOP-92 it was 20.9 µM (inactive). Besides, the GI50 with HL-60 is 9.73 µM (inactive); with RPMI-8226 it was 20.4 µM (inactive); in the assay on MCF7, 18.2 µM (inactive); in the assay on HOP-62, 17.2 µM (inactive); in the assay with HCT-116, 15.8 µM (inactive); in the assay with 786-0 it was 16.2 µM (inactive). Further, the GI50 with HCT-15 is 16.3 µM; in the assay on NCI-H460 it was 22.8 µM (inactive); in the assay on COLO 205, 17.7 µM (inactive); with UACC-62 it was 17 µM (inactive).

`C=C1CC(COc2ccc3c(C)c(Cl)c(=O)oc3c2)(c2ccccc2)OC1=O` (stereo not given): the GI50 was 1.74 µM (inactive) with SK-MEL-5; 1.75 µM (inactive) in the assay on SK-MEL-2; 3.47 µM (inactive) with SNB-75; 2.45 µM (inactive) in the assay with MDA-MB-435; 2.06 µM (inactive) in the assay on OVCAR-8; 1.47 µM (inactive) in the assay with HOP-92. Moreover, the GI50 in the assay with SNB-19 is 13.8 µM (inactive); with HL-60 it was 0.277 µM (active); in the assay with NCI-H522, 1.14 µM (inactive); in the assay with RPMI-8226 it was 0.442 µM (active); in the assay on MCF7 it was 1.08 µM (active); in the assay with HOP-62 it was 7.03 µM (inactive). The GI50 with HCT-116 was 1.01 µM (active); with 786-0 it was 1.51 µM (inactive); with HCT-15 it was 2.26 µM; in the assay with NCI-H460, 8 µM (inactive); with COLO 205, 0.675 µM (active); with CAKI-1, 1.37 µM (inactive). Moreover, the GI50 in the assay on UACC-62 is 1.74 µM (inactive).

With `O=C(CN1CCCCC1)c1ccc2c(c1)Sc1ccccc1O2`, the GI50 was 18.7 µM (inactive) in the assay with SK-MEL-2; 11.6 µM (inactive) with SNB-75; 14.5 µM (inactive) in the assay on MDA-MB-435; 16.9 µM (inactive) with OVCAR-8; 7.64 µM (inactive) in the assay on HOP-92; 13.7 µM (inactive) in the assay on SNB-19. Moreover, the GI50 with HL-60 is 14.2 µM (inactive); in the assay on RPMI-8226 it was 30.8 µM (inactive); in the assay on MCF7, 15.9 µM (inactive); in the assay with HOP-62, 16.1 µM (inactive); in the assay on HCT-116, 14.4 µM (inactive); in the assay with 786-0, 14.8 µM (inactive). Also, the 50% growth inhibitory concentration (GI50) is 11 µM in the assay with HCT-15; 4.12 µM (inactive) in the assay with RXF 393; 14.1 µM (inactive) with NCI-H460; 7.73 µM (inactive) with COLO 205; 18.3 µM (inactive) in the assay on CAKI-1; 11.5 µM (inactive) in the assay on UACC-62.
